“And” between values parts separate entries of the source, which are not always exact repeats. Equal values may be shown once.
Tests used:
[1] = tested on: outer membrane of P. aeruginosa PA01; assay: Outer membrane permeation assay (nitrocefin hydrolysis); conditions: compound at 125μM, relative to 250 μM polymyxin-B
Method: An overnight culture of PA01 was diluted 100-fold into 10 ml MHII broth containing 0.01 μg/ml of imipenem to induce a higher level of β-lactamases. […] Absorbance at 490 nm was monitored by spectrophotometry using an Infinite M200 microplate reader (Tecan) over 60 min. Experiments were performed in triplicate.

[2] = tested on: efflux of 1,2'-dinaphthylamine in strain PA01; assay: Real-time efflux assay (1,2'-dinaphthylamine, glucose-triggered); assay type: cell-based, Pseudomonas aeruginosa
Method: The experiments were performed as previously described with slight modifications. For each strain, 20 mL of MHII was inoculated with a single colony from a fresh plate and grown at 37°C to the stationary phase. […] They were then loaded over night with the dye 1,2’-dinaphthylamine (TCI-Europe SA, Zwijndrecht, Belgium) at a final concentration of 32 μM, in the presence of 5 μM CCCP. […] In a 96-well Greiner black microplate (Greiner, Courtaboeuf, France), a gradient of inhibitor (when used) was prepared in PPB, and bacteria were added (100 μL per well). The fluorescence of the cell suspension, was monitored each 22 sec during 1200 sec on an Infinite M200 microplate reader (Tecan; excitation wavelength 370 nm and emission wavelength 420 nm). In order to trigger the transport, glucose (50 mM final concentration) is added at 200 sec. The maximum efficacy of the efflux is the difference between the value obtained without and with glucose addition after 1200 sec. For each compound, the efficiency of efflux inhibition is calculated as the difference between the maximum efficacy of transport and the residual transport obtained at various concentrations of the compound.

[3] = tested on: P. aeruginosa FB1 (Mex B deleted); assay: Antibiotic susceptibility testing (broth micro-dilution MIC), strain FB1; assay type: cell-based; conditions: Pseudomonas aeruginosa, read-out: Minimal Inhibitory Concentration
Method: (§1) Experiments were performed on the BAC-SCREEN platform of the UMR-MD1, with a Freedom EVO 150 liquid handling system (Tecan, Lyon, France).

[4] = tested on: P. aeruginosa CMZ091 (Mex XY overproducer); assay: Antibiotic susceptibility testing (broth micro-dilution MIC), strain CMZ091; assay type: cell-based, Pseudomonas aeruginosa; conditions: Pseudomonas aeruginosa, read-out: Minimal Inhibitory Concentration
Method: as §1
(§2) We concluded that compound 3 was the best compound and suitable for a more detailed study. The same experiment was performed using chloramphenicol (4 mg/L) in combination with 3 (10 μM final concentration). Amongst the 20 clinical isolates, the growth of 15 (75%) was impaired, while 5 (25%) were resistant (data not shown). These experiments were performed to study the effect of our compounds on the natural resistance of P. aeruginosa. In addition, we were wondering if compound 3 could also increase susceptibility to other antibiotic families including ß-Lactams, fluoroquinolones and aminoglycosides, that are representative of the main classes of anti-pseudomonal agents. Experiments were performed with the ß-lactams ceftazidime and ticarcillin and ciprofloxacin and amikacin. […] . […] To better characterize compound 3, we first searched for the minimum concentration of compound that allowed killing of bacteria by doxycycline, and PAßN was used as the reference molecule.

[5] = tested on: twenty clinical isolates of P. aeruginosa; assay: Combined antibiotic / polyamino-isoprenic derivative on MH agar plates, clinical isolates; assay type: cell-based, Pseudomonas aeruginosa; conditions: doxycycline 2 mg/L + compound 10 μM; 20 clinical isolates
Method: MH agar plates were prepared, containing 2 mg/L doxycycline and 2 mg/L doxycycline in combination with compounds at a concentration of 10 μM. Bacteria, 5 μL of a suspension of each clinical isolate adjusted to 5 x 10^5 colony-forming units per ml were spotted on each plate and growth was monitored after a 18 h period of incubation at 37°C.
PA01 is a well-studied reference strain of P. aeruginosa, however to extend our study we considered strains recently isolated from hospitalized patients. Thus, we decided to test this combination of doxycycline (2mg/L) with polyamino-isoprenic compounds (10 μM) on twenty clinical isolates recently isolated from the HIA-Laveran (see M&M section and S1 Table).

[6] = tested on: P. aeruginosa PT629 (Mex AB overproducer); assay: Antibiotic susceptibility testing (broth micro-dilution MIC), strain PT629; assay type: cell-based, Pseudomonas aeruginosa; conditions: Pseudomonas aeruginosa, read-out: Minimal Inhibitory Concentration
Method: as §1, §2

[7] = tested on: human fibroblasts; assay: WST-1 cytotoxicity test, fibroblasts; assay type: cell-based
Method: (§3) CHO-K1 cells (ATCC-LGC Standards Sarl (Molsheim, France) and human fibroblasts (Clinisciences, Paris, France) were maintained in McCoy’s 5A and DMEM media, respectively, supplemented with 10% bovine calf serum, 2 mM glutamine, and 100 U/mL/10 μg/mL penicillin/streptomycin. They were incubated at 37°C in a humidified atmosphere containing 5% CO2. The cell lines were seeded in 96-well plates and incubated overnight. The cytotoxic effects of compounds were assessed by the colorimetric WST-1 cell proliferation assay as previously described. Briefly, a range of compound concentrations from 30 μM to 1200 μM was added to triplicate cultures, and cells were incubated at 37°C for 24 h. At the end of the incubation period, cultures were washed three times with phosphate buffer saline (PBS) and incubated in fresh culture medium containing 10% WST-1 for an additional 30 min. Cell viability was evaluated by measuring the WST-1 absorbance at 450 nm in a microplate spectrophotometer MRX1 II (Dynex technologies, Chantilly, VA, USA). The Inhibitory Concentration 50% (IC50) was chosen to evaluate the cytotoxicity of compounds. IC50 was defined as the concentration of a compound that induced a 50% decrease in viable cells. Doxorubicin was used as a positive control.

[8] = tested on: P. aeruginosa PA01 reference strain; assay: High-content screening in the presence of doxycycline; conditions: compound 10 μM, sub-inhibitory doxycycline
Method: The screening was carried out in 96-well microtiter plates using MHBII, in a final volume of 200 μL. […] The bacterial inoculum of 5×10^5 CFU/mL was prepared from an overnight culture. In addition to the polyamino-isoprenic compounds, each plate contained PAßN, CCCP, CTAB, polymyxin-B and benzalkonium chloride as control molecules. Plates were incubated at 37°C under aerobic conditions for 18 hours. Plates were read at 600 nm on an Infinite M200 Pro plate reader (Tecan).
A series of 60 compounds, which were described [18], were tested at a concentration of 10 μM in combination with a sub-inhibitory concentration of doxycycline against the reference strain of P. aeruginosa PA01. In parallel, we evaluated the intrinsic antimicrobial activity of these compounds alone to allow the selection of only doxycycline adjuvants.

[9] = tested on: P. aeruginosa PA0-7H (Mex EF overproducer); assay: Antibiotic susceptibility testing (broth micro-dilution MIC), strain PA0-7H; assay type: cell-based, Pseudomonas aeruginosa; conditions: Pseudomonas aeruginosa, read-out: Minimal Inhibitory Concentration
Method: as §1, §2

[10] = tested on: P. aeruginosa PA01 (wt); assay: Antibiotic susceptibility testing (broth micro-dilution MIC), strain PA01; assay type: cell-based, Pseudomonas aeruginosa; conditions: Pseudomonas aeruginosa, read-out: Minimal Inhibitory Concentration
Method: as §1
(§4) The same experiment was performed using chloramphenicol (4 mg/L) in combination with 3 (10 μM final concentration). […] These experiments were performed to study the effect of our compounds on the natural resistance of P. aeruginosa. […] Experiments were performed with the ß-lactams ceftazidime and ticarcillin and ciprofloxacin and amikacin.

[11] = tested on: CHO-K1 cells; assay: cells; assay type: cell-based, Chinese Hamster; conditions: for IC50: Cricetulus griseus, CHO-K1, WST1, 24 h, mean +/- SD, 2 independent experiments
Method: as §3

[12] = tested on: P. aeruginosa PA01 ERY^R (Mex CD overproducer); assay: microbe, parasite or virus in culture; assay type: cell-based, Pseudomonas aeruginosa; conditions: Pseudomonas aeruginosa, read-out: Minimal Inhibitory Concentration
Method: as §1, §4

[13] = tested on: Enterobacteriaceae; assay: Same type of combination assay against Enterobacteriaceae (data not shown); assay type: cell-based

Compound | outer membrane permeation activity [1] [%] | efflux inhibition ([2]; compound at 31.25μM) | efflux inhibition ([2]; compound at 125μM) [%] | MIC [3] | MIC [4] | isolates with doxycycline susceptibility restored [5] [%] | MIC [6] | IC50 ([7]; Homo sapiens, Fibroblast, WST1, 24 h, mean +/- SD, 2 independent experiments) [µM] | cytotoxicity value compared with the positive control doxorubicin ([7]; human fibroblasts) [times] | synergy with doxycycline in screening [8] | MIC [9] | MIC [10] | cytotoxicity value compared with the positive control doxorubicin ([11]; Chinese hamster, 24 h) [times] | IC50 [11] [µM] | MIC [12] | rank of potency against Enterobacteriaceae [13]
polymyxin-B nonapeptide [PMBN, reference compound] | 10 | quite inefficient | 30 |  |  |  |  |  |  |  |  |  |  |  |  | 
CC(C)=CCCC(C)=CCNCCCNCCCCNCCCN [Compound 1] |  |  |  | 85 µg/mL and 250 µM | 85 µg/mL and 250 µM | 27 | > 85 µg/mL and > 250 µM | 138 ± 18.6 | 10 | did not show any significant synergy | 85 µg/mL and 250 µM | > 85 µg/mL and > 250 µM | 20 | 808 ± 68.1 | > 85 µg/mL and > 250 µM | 
CC(C)=CCCC(C)=CCNCCCN(CCCN)CCCN [Compound 2] |  |  |  | > 81 µg/mL and > 250 µM | > 81 µg/mL and > 250 µM | 6 | > 81 µg/mL and > 250 µM |  |  |  | > 81 µg/mL and > 250 µM | > 81 µg/mL and > 250 µM |  | 236 ± 28.9 | > 81 µg/mL and > 250 µM | the most potent
